These results are taken from patent publication US5021438A, “1,3,4,5-tetrahydrobenz(c,d)indoles” (Bayer Aktiengesellschaft, priority 1988, dated 1991).

Where a name gives a salt, the structure may show the parent alone.

One assay deals with 5-HT1 receptor. As to the kind of experiment: Affinity for the 5-HT1 receptor (receptor binding, 3H-serotonin radioligand, calf hippocampus membranes). The note with it: calf hippocampus membrane preparations; 3H-Serotonin as radioligand. The source says: Affinity for the 5-HT1 receptor
The high affinity of the compounds according to the invention for 5-hydroxytryptamine receptors of the subtype 1 is represented by way of example in Table 1. The values indicated are data which have been determined from receptor binding studies with calf hippocampus membrane preparations. 3H-Serotonin was used for this as a radioactively labelled ligand.
In general, Ki refers to the equilibrium dissociation constant of an inhibitor or competing ligand from its target. Higher therefore signals lower affinity. Regarding `COc1ccc2[nH]cc3c2c1CC(NCCCCN1C(=O)c2ccccc2S1(=O)=O)C3` (stereo not drawn) [Example 1, 6-Methoxy-4-[4-(N-1,2-benzisothiazol-3(2H)-one-1,1-dioxide-yl)]-butylamino-1,3,4,5-tetrahydrobenz[c,d]indole hydrochloride], the Ki was found to be 2 nM. In other words, the single-digit nanomolar range.
Same read-out and setting: the value for `O=C1c2ccccc2S(=O)(=O)N1CCCCNC1Cc2cccc3[nH]cc(c23)C1` (stereo not drawn) [Example 2, 4-[4-(N-1,2-Benzisothiazol-3(2H)-one-1,1-dioxide-yl)]-butylamino-1,3,4,5-tetrahydrobenz[c,d]indole] was 2 nM; that for `CCCN(CCNC(=O)OCC)C1Cc2c[nH]c3ccc(OC)c(c23)C1` (stereo not drawn) [Example 5, 6-Methoxy-4-[N-propyl-N-(ethyloxycarbonylaminoethyl)]amino-1,3,4,5-tetrahydrobenz[c,d]indole] was 1 nM; that for `CCCN(CCNS(C)(=O)=O)C1Cc2c[nH]c3ccc(OC)c(c23)C1` (stereo not drawn) [Example 6, 6-Methoxy-4-[N-propyl-N-(methylsulphonylamidoethyl)]-amino-1,3,4,5-tetrahydrobenz[c,d]indole] was 6 nM.
On the same count and under the same terms, the value for `CCCN(CCNS(=O)(=O)c1ccc(C)cc1)C1Cc2c[nH]c3ccc(OC)c(c23)C1` (stereo not drawn) [Example 8, 6-Methoxy-4-[N-propyl-N-(tosylamidoethyl)]-amino-1,3,4,5-tetrahydrobenz[c,d]indole hydrochloride] was 1 nM; that for `CCCN(CCNS(=O)(=O)c1ccc2ccccc2c1)C1Cc2c[nH]c3ccc(OC)c(c23)C1` (stereo not drawn) [Example 9, 6-Methoxy-4-[N-propyl-N-(naphthylsulphonylamidoethyl)]-amino-1,3,4,5-tetrahydrobenz[c,d]indole hydrochloride] was 2 nM; that for `CCCN(CCS(=O)(=O)N(C)C)C1Cc2c[nH]c3ccc(OC)c(c23)C1` (stereo not drawn) [Example 15, 6-Methoxy-4-[N-propyl-N-(dimethylsulphamoylethyl)]-amino-1,3,4,5-tetrahydrobenz[c,d]indole] was 8 nM.
Same read-out and setting: the value for `COc1ccc2[nH]cc3c2c1CC(NCCCNS(=O)(=O)c1ccc(F)cc1)C3` (stereo not drawn) [Example 18, 6-Methoxy-4-(4-fluorophenylsulphonylamidopropyl)-amino-1,3,4,5-tetrahydrobenz[c,d]indole hydrochloride] was 0.7 nM.

A further assay relates to "behavioral despair" behavior. The assay can be described thus: "behavioral despair" behavior according to Porsolt et al. Format: in vivo. Particulars: according to Porsolt et al. 1977. The source says: Furthermore, the antidepressive action properties of the compounds were investigated. For this, the influence of the compounds on the so-called "behavioral despair" behavior was investigated according to Porsolt et al. Arch. Int. Pharmacodyn. Ther. 229, 327 (1977).
In the case of `COc1ccc2[nH]cc3c2c1CC(NCCCCN1Cc2ccccc2S1(=O)=O)C3` (stereo not drawn) [Example 3, 6-Methoxy-4-[4-(N-2,3-dihydro-1,2-benzisothiazol-1,1-dioxid-yl)]-butylamino-1,3,4,5-tetrahydrobenz[c,d]indole hydrochloride], the “influence on "behavioral despair" behavior (antidepressive action)” value was “positive action”.
Same read-out and setting: the value for `COc1ccc2[nH]cc3c2c1CC(NCCCCN(C)S(=O)(=O)c1ccc(F)cc1)C3` (stereo not drawn) [Example 4, 6-Methoxy-4-[4-(N-4-fluorobenzenesulfonyl-N-methyl)amidobutyl]-amino-1,3,4,5-tetrahydrobenz[c,d]indole hydrochloride] was “positive action”; that for `CCCCS(=O)(=O)NCCN(CCC)C1Cc2c[nH]c3ccc(OC)c(c23)C1` (stereo not drawn) [Example 7] was “positive action”; that for `CCCNC1Cc2c[nH]c3ccc(OC)c(c23)C1` (stereo not drawn) [Example 13, 6-Methoxy-4-propylamino-1,3,4,5-tetrahydrobenz[c,d]indole] was “positive action”.
